# Target: T1, BenM (Acinetobacter baylyi, UniProt O68014)
# T1 construct: expressed in transfected cells; host or cells: Saccharomyces cerevisiae CEN.PK113-5A, chromosomal integration; promoters TDH3p, TEF1p, RNR2p or REV1p
# Assay: CCM-induced GFP expression in yeast strains combining BenM expression cassettes and CYC1p reporter promoter variants (flow cytometry)
# Type: cell-based, Saccharomyces cerevisiae
# Conditions: for FC (+/−CCM): 1.4 mM CCM, 24 h
# Text: Strains, chemicals and media. Saccharomyces cerevisiae CEN.PK102-5B (MATa ura3-52 his3Δ1 leu2-3/112 MAL2-8^c SUC2), CEN.PK113-5A (MATa, trp1 his3Δ1 leu2-3/112 MAL2-8^c SUC2) and CEN.PK113-7D (wild type, MATa MAL2-8^c SUC2) strains were obtained from Peter Kotter (Johann Wolfgang Goethe-University Frankfurt, Germany). In principal any other yeast strains may be used, such as one obtained from public repository EuroScarf. EasyClone plasmids used in this work are described in Jensen, N. B. et al. EasyClone: method for iterative chromosomal integration of multiple genes in Saccharomyces cerevisiae. FEMS Yeast Res. 14, 238-48 (2014). Escherichia coli strain DH5a was used as a host for cloning and plasmid propagation. The chemicals and Pfu TURBO DNA polymerase were commercially obtained (Sigma-Aldrich and Agilent Technologies Inc., respectively). All acids used were >97% in purity. S. cerevisiae cells were grown at 30° C. in synthetic complete medium as well as drop-out media and agar plates were prepared using pre-mixed drop-out powders (Sigma-Aldrich). Mineral medium was freshly prepared as described previously. For all media containing diacids, 1.4 mM of the individual diacids were dissolved in mineral medium and pH adjusted to 4.5 before sterile filtration. For CCM several dilutions were made to examine the performance of the CCM biosensor. For naringenin, mineral medium was supplemented with 0, 0.05, 0.10 or 0.20 mM naringenin, dissolved in ethanol, the final ethanol concentration for each medium was 2% (v/v), and the final pH of the medium was adjusted to 6.0. E. coli cells were grown at 37° C. in Luria-Bertani (LB) medium supplemented with 100 μg/mL ampicillin.
# Events were analyzed using FlowJo software (TreeStar Inc.).
# [1] = strain MeLS0162, RNR2p-BenM + 249bp_CYC1p:GFP
# [2] = strain MeLS0163, RNR2p-BenM + 209bp_CYC1p:GFP
# [3] = strain MeLS0164, TDH3p-BenM + 491bp_CYC1p:GFP
# [4] = strain MeLS0165, TDH3p-BenM + 272bp_CYC1p:GFP
# [5] = strain MeLS0166, TDH3p-BenM + 249bp_CYC1p:GFP
# [6] = strain MeLS0167, TDH3p-BenM + 209bp_CYC1p:GFP
# [7] = strain MeLS0168, TEF1p-BenM + 491bp_CYC1p_BenO_T1:GFP
# [8] = strain MeLS0169, TEF1p-BenM + 249bp_CYC1p_BenO_T1:GFP
# [9] = strain MeLS0170, RNR2p-BenM + 491bp_CYC1p_BenO_T1:GFP
# [10] = strain MeLS0171, RNR2p-BenM + 249bp_CYC1p_BenO_T1:GFP
# [11] = strain MeLS0172, TDH3p-BenM + 491bp_CYC1p_BenO_T1:GFP
# [12] = strain MeLS0173, TDH3p-BenM + 249bp_CYC1p_BenO_T1:GFP
# [13] = strain MeLS0182, TEF1p-BenM + 272bp_CYC1p_BenO_T2:GFP
# [14] = strain MeLS0183, TEF1p-BenM + 272bp_CYC1p_BenO_T1/T2:GFP
# [15] = strain MeLS0184, TEF1p-BenM + 249bp_CYC1p_BenO_T2:GFP
# [16] = strain MeLS0185, TEF1p-BenM + 249bp_CYC1p_BenO_T1/T2:GFP
# [17] = strain MeLS0186, REV1p-BenM + 272bp_CYC1p_BenO_T2:GFP
# [18] = strain MeLS0187, REV1p-BenM + 272bp_CYC1p_BenO_T1/T2:GFP
# [19] = strain MeLS0188, REV1p-BenM + 249bp_CYC1p_BenO_T2:GFP
# [20] = strain MeLS0189, REV1p-BenM + 249bp_CYC1p_BenO_T1/T2:GFP
# [21] = strain MeLS0190, TDH3p-BenM + 272bp_CYC1p_BenO_T2:GFP
# [22] = strain MeLS0191, TDH3p-BenM + 272bp_CYC1p_BenO_T1/T2:GFP
# [23] = strain MeLS0192, TDH3p-BenM + 249bp_CYC1p_BenO_T2:GFP
# [24] = strain MeLS0193, TDH3p-BenM + 249bp_CYC1p_BenO_T1/T2:GFP
# [25] = strain MeLS0195, RNR2p-BenM + 272bp_CYC1p_BenO_T1/T2:GFP
# [26] = strain MeLS0196, RNR2p-BenM + 249bp_CYC1p_BenO_T2:GFP
# [27] = strain MeLS0197, RNR2p-BenM + 249bp_CYC1p_BenO_T1/T2:GFP
# [28] = strain MeLS0263, TDH3p-BenM + 491bp_CYC1p_BenO_T2:GFP
# [29] = strain MeLS0264, TDH3p-BenM + 209bp_CYC1p_BenO_T2:GFP
# [30] = strain MeLS0265, RNR2p-BenM + 491bp_CYC1p_BenO_T2:GFP
# [31] = strain MeLS0266, RNR2p-BenM + 209bp_CYC1p_BenO_T2:GFP
# [32] = strain MeLS0267, TDH3p-BenM + 491bp_CYC1p_BenO_T1/T2:GFP
# [33] = strain MeLS0268, TDH3p-BenM + 209bp_CYC1p_BenO_T1/T2:GFP
# [34] = strain MeLS0269, RNR2p-BenM + 491bp_CYC1p_BenO_T1/T2:GFP
# [35] = strain MelS0194, RNR2p-BenM + 272bp_CYC1p_BenO_T2:GFP
# T1 sequence (O68014 whole entry): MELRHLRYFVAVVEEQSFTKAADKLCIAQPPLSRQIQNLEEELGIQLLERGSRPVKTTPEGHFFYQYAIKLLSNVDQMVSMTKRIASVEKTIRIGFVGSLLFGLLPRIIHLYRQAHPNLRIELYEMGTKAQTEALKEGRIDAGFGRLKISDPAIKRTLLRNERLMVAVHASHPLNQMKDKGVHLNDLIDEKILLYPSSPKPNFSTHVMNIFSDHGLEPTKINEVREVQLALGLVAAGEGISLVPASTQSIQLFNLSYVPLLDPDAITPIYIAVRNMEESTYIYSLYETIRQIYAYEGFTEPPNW
structure (smiles),measurement,setting,value
"O=C(O)/C=C\C=C/C(=O)O [CCM, cis, cis-muconic acid]","Mean fluorescense intensities of GFP (24 h), CCM (1.4 mM)",[1],164
same,FC (+/−CCM),[1],1.121
same,"Mean fluorescense intensities of GFP (24 h), CCM (1.4 mM)",[2],164
same,FC (+/−CCM),[2],1.121
same,"Mean fluorescense intensities of GFP (24 h), CCM (1.4 mM)",[3],4509
same,FC (+/−CCM),[3],1.126
same,"Mean fluorescense intensities of GFP (24 h), CCM (1.4 mM)",[4],216
same,FC (+/−CCM),[4],1.157
same,"Mean fluorescense intensities of GFP (24 h), CCM (1.4 mM)",[5],205
same,FC (+/−CCM),[5],1.131
same,"Mean fluorescense intensities of GFP (24 h), CCM (1.4 mM)",[6],194
same,FC (+/−CCM),[6],1.09
same,"Mean fluorescense intensities of GFP (24 h), CCM (1.4 mM)",[7],20250
same,FC (+/−CCM),[7],1.312
same,"Mean fluorescense intensities of GFP (24 h), CCM (1.4 mM)",[8],2913
same,FC (+/−CCM),[8],4.337
same,"Mean fluorescense intensities of GFP (24 h), CCM (1.4 mM)",[9],6114
same,FC (+/−CCM),[9],1.089
same,"Mean fluorescense intensities of GFP (24 h), CCM (1.4 mM)",[10],290
same,FC (+/−CCM),[10],1.549
same,"Mean fluorescense intensities of GFP (24 h), CCM (1.4 mM)",[11],10605
same,FC (+/−CCM),[11],1.538
same,"Mean fluorescense intensities of GFP (24 h), CCM (1.4 mM)",[12],3554
same,FC (+/−CCM),[12],4.707
same,"Mean fluorescense intensities of GFP (24 h), CCM (1.4 mM)",[13],211
same,FC (+/−CCM),[13],1.155
same,"Mean fluorescense intensities of GFP (24 h), CCM (1.4 mM)",[14],511
same,FC (+/−CCM),[14],1.969
same,"Mean fluorescense intensities of GFP (24 h), CCM (1.4 mM)",[15],475
same,FC (+/−CCM),[15],1.653
same,"Mean fluorescense intensities of GFP (24 h), CCM (1.4 mM)",[16],9992
same,FC (+/−CCM),[16],3.797
same,"Mean fluorescense intensities of GFP (24 h), CCM (1.4 mM)",[17],197
same,FC (+/−CCM),[17],1.201
same,"Mean fluorescense intensities of GFP (24 h), CCM (1.4 mM)",[18],370
same,FC (+/−CCM),[18],1.789
same,"Mean fluorescense intensities of GFP (24 h), CCM (1.4 mM)",[19],194
same,FC (+/−CCM),[19],1.215
same,"Mean fluorescense intensities of GFP (24 h), CCM (1.4 mM)",[20],181
same,FC (+/−CCM),[20],1.22
same,"Mean fluorescense intensities of GFP (24 h), CCM (1.4 mM)",[21],218
same,FC (+/−CCM),[21],1.088
same,"Mean fluorescense intensities of GFP (24 h), CCM (1.4 mM)",[22],691
same,FC (+/−CCM),[22],1.892
same,"Mean fluorescense intensities of GFP (24 h), CCM (1.4 mM)",[23],978
same,FC (+/−CCM),[23],1.761
same,"Mean fluorescense intensities of GFP (24 h), CCM (1.4 mM)",[24],1630
same,FC (+/−CCM),[24],4.004
same,"Mean fluorescense intensities of GFP (24 h), CCM (1.4 mM)",[25],199
same,FC (+/−CCM),[25],1.238
same,"Mean fluorescense intensities of GFP (24 h), CCM (1.4 mM)",[26],349
same,FC (+/−CCM),[26],1.575
same,"Mean fluorescense intensities of GFP (24 h), CCM (1.4 mM)",[27],256
same,FC (+/−CCM),[27],1.571
same,"Mean fluorescense intensities of GFP (24 h), CCM (1.4 mM)",[28],1197
same,FC (+/−CCM),[28],1.898
same,"Mean fluorescense intensities of GFP (24 h), CCM (1.4 mM)",[29],527
same,FC (+/−CCM),[29],1.495
same,"Mean fluorescense intensities of GFP (24 h), CCM (1.4 mM)",[30],698
same,FC (+/−CCM),[30],1.513
same,"Mean fluorescense intensities of GFP (24 h), CCM (1.4 mM)",[31],179
same,FC (+/−CCM),[31],1.072
same,"Mean fluorescense intensities of GFP (24 h), CCM (1.4 mM)",[32],2218
same,FC (+/−CCM),[32],2.64
same,"Mean fluorescense intensities of GFP (24 h), CCM (1.4 mM)",[33],2172
same,FC (+/−CCM),[33],3.25
same,"Mean fluorescense intensities of GFP (24 h), CCM (1.4 mM)",[34],2589
same,FC (+/−CCM),[34],2.005
same,"Mean fluorescense intensities of GFP (24 h), CCM (1.4 mM)",[35],258
same,FC (+/−CCM),[35],1.065
same,specificity of GFP induction among diacids tested,"wild-type BenM, diacids 1.4 mM, pH 4.5, 24 h",induce GFP expression specifically in response to CCM
